Data on 19 compounds can be found in patent publication US8324214B2, “1,3-dihydro-2H-pyrrolo[3,2-bpyridin-2-one derivatives, preparation thereof and therapeutic uses thereof” (Sanofi, priority 2008, dated 2012).

Where a name gives a salt, the structure may show the parent alone.

Series [1] has as its target T1, human uterine oxytocin receptor (Homo sapiens, UniProt P30559).
T1 construct: expressed in transfected cells
T1 sequence (P30559 1-389): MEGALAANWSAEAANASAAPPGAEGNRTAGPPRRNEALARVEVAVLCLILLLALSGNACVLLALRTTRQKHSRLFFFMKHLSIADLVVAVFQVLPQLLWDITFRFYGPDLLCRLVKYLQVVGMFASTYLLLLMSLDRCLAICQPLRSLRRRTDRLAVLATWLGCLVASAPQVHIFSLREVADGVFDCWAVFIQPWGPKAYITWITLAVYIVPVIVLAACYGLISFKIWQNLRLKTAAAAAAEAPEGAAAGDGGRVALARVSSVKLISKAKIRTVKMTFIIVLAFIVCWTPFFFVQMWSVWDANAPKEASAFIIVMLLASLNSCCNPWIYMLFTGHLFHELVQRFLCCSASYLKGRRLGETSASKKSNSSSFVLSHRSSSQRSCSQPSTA
Briefly: Displacement of radioiodinated oxytocin analogue at oxytocin receptors. It counts as binding. The note with it: for IC50: affinity at human oxytocin receptors. As for the experimental part: The affinity of the compounds according to the invention for the oxytocin receptors was determined in an in vitro binding test using the method described by J. Elands et al. in Eur. J. Pharmacol., 1987, 147, 197-207. This method consists in studying in vitro the displacement of a radioiodinated analogue of oxytocin at the oxytocin receptors in a membrane preparation of cells transfected with the human uterine oxytocin receptor.

The target of series [2] is T2, human V1a receptors (Homo sapiens, UniProt P37288). As to the kind of experiment: Displacement of [3H]-AVP at V1a receptors (binding affinity). The conditions noted are these: for IC50: affinity at human V1a receptors, [3H]-AVP displacement; for selectivity for the human V1a and V1b receptors for AVP (in words): versus V2 / oxytocin receptors. As for the experimental part:
The affinity of the compounds of formula (I) according to the invention for the arginine-vasopressin V1a receptors was determined in vitro using the method described by M. Thibonnier et al., J. Biol. Chem., 1994, 269, 3304-3310. This method consisted in studying in vitro the displacement of tritiated arginine-vasopressin ([3H]-AVP) at the V1a receptors present on membrane or cell preparations carrying the rat or human V1a receptors.
(Displacement assays read how much labelled ligand stays bound in the presence of the test substance.)

The next series addresses T3, human V1b receptors (Homo sapiens, UniProt P47901).
T3 sequence (P47901 1-424): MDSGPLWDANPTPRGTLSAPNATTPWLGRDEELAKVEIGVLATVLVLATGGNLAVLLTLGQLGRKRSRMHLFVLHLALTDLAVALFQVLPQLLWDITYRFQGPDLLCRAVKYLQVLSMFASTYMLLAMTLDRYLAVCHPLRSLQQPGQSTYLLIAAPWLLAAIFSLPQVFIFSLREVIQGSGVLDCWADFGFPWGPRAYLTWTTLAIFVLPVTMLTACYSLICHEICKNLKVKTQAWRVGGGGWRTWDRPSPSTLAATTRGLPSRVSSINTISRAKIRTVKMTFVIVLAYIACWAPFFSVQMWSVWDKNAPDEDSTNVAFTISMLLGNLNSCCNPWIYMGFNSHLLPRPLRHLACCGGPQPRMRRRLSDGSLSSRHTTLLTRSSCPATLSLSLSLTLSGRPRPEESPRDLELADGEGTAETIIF
Briefly: Displacement of [3H]-AVP at V1b receptors (binding affinity). The note with it: [3H]-AVP displacement. As to the method: The affinity of the compounds of formula (I) according to the invention for the arginine-vasopressin V1b receptors was determined in vitro using the method described by Y. de Keyser et al. in Febs Letters, 1994, 356, 215-220. This method consists in studying in vitro the displacement of tritiated arginine-vasopressin ([3H]-AVP) at the V1b receptors present on cell preparations carrying the human V1b receptors.

The target in the next series is human V2 receptors (Homo sapiens, UniProt P30518). As to the kind of experiment: Affinity for vasopressin V2 receptors. Type of series: binding. The note with it: for IC50: affinity at human V2 receptors. An excerpt:
Th affinity of the compounds of formula (I) according to the invention for the vasopressin V2 receptors was also studied (method described by M. Birnbaumer et al. in Nature (Lond.), 1992, 357, 333-335).

Series [3] concerns the target T2, human V1a receptors. As to the kind of experiment: Intracellular calcium measurement (FLIPR) on cells expressing V1a receptors. Type of series: cell-based. The conditions noted are these: FLIPR and platelet aggregation tests; blocking effects caused by arginine-vasopressin. As for the experimental part: The agonist or antagonist character of the compounds is determined in vitro in a test for measuring intracellular calcium (FLIPR) on cells expressing the human V1a receptors according to the general technique described in Sullivan et al, Methods Mol. Biol., 1999, 114, 125-133, using 1 μM Fluo-4 AM and in an AVP-induced platelet aggregation test on human PRP (platelet rich plasma) according to the methodology described in J. Clin. Invest., 1993, 92, 224.231. The compounds are preincubated for 30 minutes before the addition of arginine vasopressin in order to determine the agonist and antagonist properties of these molecules.
In general terms: A change in cytosolic calcium serves as a functional read-out for many receptors and channels.

T2 sequence (P37288 whole entry): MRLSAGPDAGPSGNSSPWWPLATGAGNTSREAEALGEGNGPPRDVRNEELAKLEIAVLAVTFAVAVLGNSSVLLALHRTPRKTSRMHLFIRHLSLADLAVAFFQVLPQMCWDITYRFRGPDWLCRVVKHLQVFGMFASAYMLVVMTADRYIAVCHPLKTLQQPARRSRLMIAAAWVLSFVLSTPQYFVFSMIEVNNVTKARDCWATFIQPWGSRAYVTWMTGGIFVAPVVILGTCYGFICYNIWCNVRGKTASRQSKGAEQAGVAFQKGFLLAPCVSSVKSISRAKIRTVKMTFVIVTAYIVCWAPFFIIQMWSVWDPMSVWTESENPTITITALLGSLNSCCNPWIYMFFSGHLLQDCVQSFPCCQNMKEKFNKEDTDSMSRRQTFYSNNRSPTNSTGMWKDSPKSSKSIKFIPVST
human V2 receptors, sequence (P30518 whole entry): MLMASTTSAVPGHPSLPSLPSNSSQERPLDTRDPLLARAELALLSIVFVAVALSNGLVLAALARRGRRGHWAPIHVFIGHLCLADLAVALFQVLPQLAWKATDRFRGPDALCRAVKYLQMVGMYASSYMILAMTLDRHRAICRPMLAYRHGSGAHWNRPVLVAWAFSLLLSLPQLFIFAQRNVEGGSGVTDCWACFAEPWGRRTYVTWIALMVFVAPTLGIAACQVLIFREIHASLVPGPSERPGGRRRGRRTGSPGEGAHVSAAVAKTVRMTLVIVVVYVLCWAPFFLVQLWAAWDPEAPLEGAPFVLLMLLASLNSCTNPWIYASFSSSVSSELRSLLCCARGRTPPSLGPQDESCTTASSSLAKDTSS

For `COc1ccc2c(n1)C(CCCN1CCCCC1)(c1ccccc1F)C(=O)N2S(=O)(=O)c1ccc(OC(C)C)cc1` (centres unmarked) (as salt: HCl), the melting point came to 157 °C.

For `COc1ccc2c(n1)C(CCCN1CCCCC1)(c1ccccc1F)C(=O)N2S(=O)(=O)c1ccc(OC(F)F)cc1` (centres unmarked) (as salt: HCl), the melting point was determined as 133 °C.

`COc1ccc2c(n1)C(CCCN1CCCCC1)(c1ccccc1F)C(=O)N2S(=O)(=O)c1cccc(Cl)c1` (centres unmarked) (as salt: HCl): the melting point amounted to 148 °C.

In turn, `COc1ccc2c(n1)C(CCCN1CCNCC1)(c1ccccc1F)C(=O)N2S(=O)(=O)c1ccc(OC(C)C)cc1` (centres unmarked) (as salt: HCl) [Compound No. 2, 3-(2-fluorophenyl)-1-[(4-isopropoxyphenyl)sulphonyl]-5-methoxy-3-(3-piperazin-1-ylpropyl)-1,3-dihydro-2H-pyrrolo[3,2-b]pyridin-2-one] had a melting point of 123 °C.

`COc1ccc2c(n1)C(CCCN1CCNCC1)(c1ccccc1F)C(=O)N2S(=O)(=O)c1cccc(Cl)c1` (centres unmarked) (as salt: HCl) [compound 4, 1-[(3-chlorophenyl)sulphonyl]-3-(2-fluorophenyl)-5-methoxy-3-(3-piperazin-1-ylpropyl)-1,3-dihydro-2H-pyrrolo[3,2-b]pyridin-2-one]: the melting point worked out at 177 °C.

In turn, `COc1ccc2c(n1)C(CCCN1CCN(C)CC1)(c1ccccc1F)C(=O)N2S(=O)(=O)c1ccc(OC(C)C)cc1` (centres unmarked) (as salt: HCl) [compound 11, 3-(2-fluorophenyl)-1-[(4-isopropoxyphenyl)sulphonyl]-5-methoxy-3-[3-(4-methylpiperazin-1-yl)propyl]-1,3-dihydro-2H-pyrrolo[3,2-b]pyridin-2-one] registered a melting point of 190 °C.

Compound `COc1ccc2c(n1)C(CCCCN1CCNCC1)(c1ccccc1F)C(=O)N2S(=O)(=O)c1ccc(OC(C)C)cc1` (centres unmarked) (as salt: HCl) [compound 14, 3-(2-fluorophenyl)-1-[(4-isopropoxyphenyl)sulphonyl]-5-methoxy-3-(4-piperazin-1-ylbutyl)-1,3-dihydro-2H-pyrrolo[3,2-b]pyridin-2-one] yielded a melting point of 133 °C.

In turn, `COc1ccc2c(n1)C(CCCCN1CCN(C)CC1)(c1ccccc1F)C(=O)N2S(=O)(=O)c1ccc(OC(C)C)cc1` (centres unmarked) (as salt: salt) yielded a melting point of 52 °C.

`COc1ccc2c(n1)C(CCCCN1CCNCC1)(c1ccccc1F)C(=O)N2S(=O)(=O)c1ccc(OC(C)C)cc1` (racemic) (as salt: HCl) [Compound No. 10, 3-(2-Fluorophenyl)-1-[(4-isopropoxyphenyl)sulphonyl]-5-methoxy-3-(4-piperazin-1-ylbutyl)-1,3-dihydro-2H-pyrrolo[3,2-b]pyridin-2-one] displayed a melting point of 210 °C.

`Cc1ccc2c(n1)C(CCCN1CCNCC1)(c1ccccc1F)C(=O)N2S(=O)(=O)c1ccc(OC(C)C)cc1.Cl` (single isomer, unassigned) returned a melting point of 150 °C.

Regarding `COc1cccc(S(=O)(=O)N2C(=O)C(CCCN3CCNCC3)(c3ccccc3F)c3nc(OC)ccc32)c1.Cl` (single isomer, unassigned), the melting point came out at 178 °C.

In the case of `COc1cccc(S(=O)(=O)N2C(=O)C(CCCN3CCCCC3)(c3ccccc3F)c3nc(OC)ccc32)c1.Cl` (single isomer, unassigned), the melting point came out at 148 °C.

Turning to `COc1ccc2c(n1)C(CCCN1CCNCC1)(c1ccccc1F)C(=O)N2S(=O)(=O)c1ccc(OC(C)C)cc1` (centres unmarked) [Compound No. 2, 3-(2-fluorophenyl)-1-[(4-isopropoxyphenyl)sulphonyl]-5-methoxy-3-(3-piperazin-1-ylpropyl)-1,3-dihydro-2H-pyrrolo[3,2-b]pyridin-2-one], the IC50 in series [1] was 71 nM; on human V1a receptors [2] it was 0.82 nM; on human V1b receptors, 350 nM; on human V2 receptors, 120 nM.

Turning to `CCN(CC)C(=O)Nc1ccc(S(=O)(=O)N2C(=O)C(NCCC3CCNCC3)(c3ccccc3Cl)c3cc(Cl)c(Cl)cc32)cc1` (stereo not drawn) [Compound α, 3-[4-[[5,6-dichloro-3-(2-chlorophenyl)-2-oxo-3-[(2-piperidin-4-ylethyl)amino]-2,3-dihydro-1H-indol-1-yl]sulphonyl]phenyl]-1,1-diethylurea], in series [1], the “affinity for the oxytocin receptors (in words)” value is “good affinity” and the IC50 came out at 100 nM. At human V1a receptors [2], the “affinity for the human V1a receptors for AVP (in words)” value is given as “good affinity”; the IC50 was 23 nM; the “selectivity for the human V1a and V1b receptors for AVP (in words)” value is “not therefore selective”. Moreover, the IC50 at human V1b receptors is 210 nM. Also, on human V2 receptors, the “affinity for the human V2 receptors for AVP (in words)” value is recorded as “good affinity” and the IC50 turned out to be 19 nM.

In series [1], `CCN(CC)C(=O)Nc1ccc(S(=O)(=O)N2C(=O)C(NCCC3CCNCC3)(c3ccccc3Cl)c3cc(Cl)c(C)cc32)cc1` (stereo not drawn) [Compound β, 3-[4-[[5-chloro-3-(2-chlorophenyl)-6-methyl-2-oxo-3-[(2-piperidin-4-ylethyl)amino]-2,3-dihydro-1H-indol-1-yl]sulphonyl]phenyl]-1-diethylurea] came in with an IC50 of 69 nM. Moreover, at human V1a receptors [2], the “affinity for the human V1a receptors for AVP (in words)” value is recorded as “good affinity”; the IC50 was determined as 18 nM; the “selectivity for the human V1a and V1b receptors for AVP (in words)” value is reported as “not therefore selective”. Further, the IC50 on human V1b receptors stood at 180 nM. In addition, at human V2 receptors, the “affinity for the human V2 receptors for AVP (in words)” value is reported as “good affinity” and the midpoint of inhibition, the IC50, lay at 13 nM.

In the case of `COc1ccc2c(n1)C(CCCN1CCNCC1)(c1ccccc1F)C(=O)N2S(=O)(=O)c1ccc(OC(C)C)cc1` (centres unmarked) [No. 2], on human V1a receptors [3], the “agonist or antagonist character” value is “V1a receptor antagonists”.

`COc1ccc2c(n1)C(CCCN1CCNCC1)(c1ccccc1F)C(=O)N2S(=O)(=O)c1cccc(Cl)c1` (centres unmarked) [No. 4]: at human V1a receptors [3], the “agonist or antagonist character” value is recorded as “V1a receptor antagonists”.

On to `COc1ccc2c(n1)C(CCCN1CCNCC1)(c1ccccc1F)C(=O)N2S(=O)(=O)c1cccc(Cl)c1` (centres unmarked) [compound 4, 1-[(3-chlorophenyl)sulphonyl]-3-(2-fluorophenyl)-5-methoxy-3-(3-piperazin-1-ylpropyl)-1,3-dihydro-2H-pyrrolo[3,2-b]pyridin-2-one], for which the IC50 in series [1] was over 1000 nM; on human V1a receptors [2], 8.9 nM; at human V1b receptors, over 1000 nM; against human V2 receptors, over 1000 nM.

Regarding `COc1ccc2c(n1)C(CCCN1CCN(C)CC1)(c1ccccc1F)C(=O)N2S(=O)(=O)c1ccc(OC(C)C)cc1` (centres unmarked) [compound 11, 3-(2-fluorophenyl)-1-[(4-isopropoxyphenyl)sulphonyl]-5-methoxy-3-[3-(4-methylpiperazin-1-yl)propyl]-1,3-dihydro-2H-pyrrolo[3,2-b]pyridin-2-one], the IC50 was 100 nM in series [1], 7.1 nM on human V1a receptors [2], over 1000 nM on human V1b receptors and 210 nM at human V2 receptors.

In general, melting point refers to the temperature, or range, at which the solid turns liquid. For orientation: IC50 means the midpoint of a concentration-inhibition curve. A low value points to inhibition by little substance.
